Data: publication PMC5761210 (Journal of Pharmaceutical Analysis, 2014)
Like-named read-outs stand apart in the source and are kept apart here.

How the values were obtained:
Salmonella typhimurium = details: cited from earlier work
[1] = format: in vitro ADME, human; details: for Qmax,24 h (maximal absorption: receptor fluid + epidermis + dermis after 24 h): percentage of the applied dose
[2] = EFSA report; cited from earlier work
[3] = no reference given; cited from earlier work
[4] = vehicle 50% Glycerol, mean±RSD (%)

CC(=O)CO [acetol, 1-hydroxypropan-2-one]
Ames tests (in-vitro mutagenic properties) (Salmonella typhimurium): positive
dose applied cumulatively found in the receptor chamber ([1]; after 24 h, over the investigated vehicles): 1.3–10.0%
Dm (diffusion coefficient) ([1]; vehicle 50% EtOH, mean±RSD (%)): 1.49±41.8 10^−4 cm^2/h
Kp (permeability coefficient) ([1]; vehicle 50% EtOH, mean±RSD (%)): 3.91±45.1 10^−3 cm/h
Lag time ([1]; vehicle 50% EtOH, mean±RSD (%)): 2.14 ± 51.8 h
Qmax,24 h (maximal absorption: receptor fluid + epidermis + dermis after 24 h) ([1]; vehicle 50% EtOH, mean±RSD (%)): 7.28±29.0%
Dm (diffusion coefficient) [1, 4]: 0.73±22.4 10^−4 cm^2/h
Kp (permeability coefficient) [1, 4]: 0.78±40.3 10^−3 cm/h
Lag time [1, 4]: 4.39 ± 28.7 h
Qmax,24 h (maximal absorption: receptor fluid + epidermis + dermis after 24 h) [1, 4]: 1.75±39.0%
Dm (diffusion coefficient) ([1]; vehicle 50% PG, mean±RSD (%)): 1.07±103.0 10^−4 cm^2/h
Kp (permeability coefficient) ([1]; vehicle 50% PG, mean±RSD (%)): 1.30±79.0 10^−3 cm/h
Lag time ([1]; vehicle 50% PG, mean±RSD (%)): 5.65 ± 70.9 h
Qmax,24 h (maximal absorption: receptor fluid + epidermis + dermis after 24 h) ([1]; vehicle 50% PG, mean±RSD (%)): 2.94±76.0%
Jss (steady-state flux) ([1]; vehicle H2O (pure water), 5% acetol (m/V), 500 µL infinite dose, mean±RSD (%)): 68.3±21.2 µg/cm^2/h
Dm (diffusion coefficient) ([1]; vehicle H2O, mean±RSD (%)): 1.28±49.6 10^−4 cm^2/h
Kp (permeability coefficient) ([1]; vehicle H2O, mean±RSD (%)): 1.30±21.2 10^−3 cm/h
Lag time ([1]; vehicle H2O, mean±RSD (%)): 2.95 ± 71.0 h
Qmax,24 h (maximal absorption: receptor fluid + epidermis + dermis after 24 h) ([1]; vehicle H2O, mean±RSD (%)): 3.37±11.7%
Kp (permeability coefficient) ([1]; vehicle PG (propylene glycol/water 50/50, V/V)): 0.0013 cm/h
Kp (permeability coefficient) ([1]; vehicle glycerol (glycerol/water 50/50, V/V)): 0.000778 cm/h
Kp (permeability coefficient) ([1]; vehicle water): 0.0013 cm/h
genotoxic in-vivo [2]: not likely
log Pow [3]: −0.78
